The results in this text go back to patent US8546376B2, “Pharmaceutical compounds” (Almac Discovery Limited, priority 2009, dated 2013).

Usually IC50 stands for the concentration at which inhibition is half-maximal.

Holding throughout (type): biochemical
One assay has as its target T1, AKT3 (Homo sapiens, UniProt Q9Y243).
T1 construct: purchased SignalChem
The assay can be described thus: AKT Kinase Assay (IMAP fluorescent polarisation) vs AKT3. As to conditions: activated AKT3, FAM Crosstide substrate. The procedure, abridged: (§1)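 IC50 values came from non-linear regression of % inhibition relative to vehicle, measured by IMAP fluorescence polarisation (485/528 nm) after a 1 h room-temperature reaction of FAM-Crosstide and ATP. Each activated isoform was first exposed to compound for 45 min across fourteen half-log doses.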

The next assay addresses T2, AKT1 (Homo sapiens, UniProt P31749).
T2 construct: purchased SignalChem
Briefly: AKT Kinase Assay (IMAP fluorescent polarisation) vs AKT1. As to conditions: activated AKT1, FAM Crosstide substrate. The essentials: as §1

The target of a further assay is T3, AKT2 (Homo sapiens, UniProt P31751).
T3 construct: purchased SignalChem
T3 sequence (P31751 whole entry): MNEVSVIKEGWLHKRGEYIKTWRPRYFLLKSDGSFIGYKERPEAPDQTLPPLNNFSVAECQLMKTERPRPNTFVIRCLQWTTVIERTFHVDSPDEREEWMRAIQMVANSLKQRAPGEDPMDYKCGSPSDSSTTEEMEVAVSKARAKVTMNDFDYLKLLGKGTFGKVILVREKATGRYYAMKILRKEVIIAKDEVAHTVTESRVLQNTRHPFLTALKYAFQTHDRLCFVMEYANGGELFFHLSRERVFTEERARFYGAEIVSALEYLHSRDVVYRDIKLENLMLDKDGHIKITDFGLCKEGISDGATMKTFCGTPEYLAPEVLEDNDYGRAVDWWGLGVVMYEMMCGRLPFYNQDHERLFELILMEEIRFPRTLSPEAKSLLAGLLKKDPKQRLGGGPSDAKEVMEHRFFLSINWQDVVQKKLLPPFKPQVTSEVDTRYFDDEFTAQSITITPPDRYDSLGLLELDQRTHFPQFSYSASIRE
Briefly: AKT Kinase Assay (IMAP fluorescent polarisation) vs AKT2. As to conditions: activated AKT2, FAM Crosstide substrate. The essentials:
as §1

Counter-ions that a name gives are not always drawn. Where only a bound is given, the exact number is not on record here.

T2 sequence (P31749 whole entry): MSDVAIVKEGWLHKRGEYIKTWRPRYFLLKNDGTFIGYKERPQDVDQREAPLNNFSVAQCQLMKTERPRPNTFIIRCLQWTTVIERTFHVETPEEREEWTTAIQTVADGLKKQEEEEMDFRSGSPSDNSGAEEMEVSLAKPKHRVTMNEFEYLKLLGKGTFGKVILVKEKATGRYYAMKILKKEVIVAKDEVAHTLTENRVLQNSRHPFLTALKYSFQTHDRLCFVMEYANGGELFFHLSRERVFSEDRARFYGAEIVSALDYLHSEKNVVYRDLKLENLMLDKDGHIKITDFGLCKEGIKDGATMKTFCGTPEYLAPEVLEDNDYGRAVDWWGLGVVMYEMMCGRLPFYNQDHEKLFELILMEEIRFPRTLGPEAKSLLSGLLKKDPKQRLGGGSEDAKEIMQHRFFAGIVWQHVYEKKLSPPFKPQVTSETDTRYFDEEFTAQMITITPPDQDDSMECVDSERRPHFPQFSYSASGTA
T1 sequence (Q9Y243 whole entry): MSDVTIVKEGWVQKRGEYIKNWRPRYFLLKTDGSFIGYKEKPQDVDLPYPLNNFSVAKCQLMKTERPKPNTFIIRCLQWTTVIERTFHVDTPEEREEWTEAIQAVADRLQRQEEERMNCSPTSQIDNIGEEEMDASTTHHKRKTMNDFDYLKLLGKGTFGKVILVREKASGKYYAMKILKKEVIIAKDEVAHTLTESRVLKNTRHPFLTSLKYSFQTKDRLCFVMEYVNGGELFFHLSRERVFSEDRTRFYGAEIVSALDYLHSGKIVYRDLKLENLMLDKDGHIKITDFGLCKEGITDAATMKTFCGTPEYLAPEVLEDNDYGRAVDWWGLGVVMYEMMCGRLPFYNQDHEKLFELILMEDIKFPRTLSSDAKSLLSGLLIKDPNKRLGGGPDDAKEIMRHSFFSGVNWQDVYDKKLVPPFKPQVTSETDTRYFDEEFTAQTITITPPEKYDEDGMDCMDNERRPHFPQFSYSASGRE

For `NC1(c2ccc(-c3c(-c4ccccc4)oc4c(-c5cccc(F)c5C(=O)O)nccc4c3=O)cc2)CCC1` [Example 121, 2-(3-(4-(1-aminocyclobutyl)phenyl)-4-oxo-2-phenyl-4H-pyrano[2,3-c]pyridin-8-yl)-6-fluorobenzoic acid], the IC50 on AKT3 was above 10 µM; on AKT1, 1000 to 10000 nM; at AKT2, above 10000 nM.
Turning to `Cn1ncc2c3oc(-c4ccccc4)c(-c4ccc(C5(N)CCC5)cc4)c(=O)c3ccc21` [Example 60, 3-[4-(1-Amino-cyclobutyl)-phenyl]-7-methyl-2-phenyl-7H-pyrano[2,3-e]indazol-4-one], the figures for the IC50 on AKT3, on AKT1 and at AKT2 were 1 to 10 µM, at most 1000 nM and at most 1000 nM, respectively.
Consider `NC1(c2ccc(-c3c(-c4ccccc4)oc4c(-c5cc[nH]n5)cccc4c3=O)cc2)CCC1` [Example 53, 3-[4-(1-Amino-cyclobutyl)-phenyl]-2-phenyl-8-(1H-pyrazol-3-14)-chromen-4-one hydrochloride], for which the IC50 on AKT3 is 1 to 10 µM; at AKT1, at most 1000 nM; on AKT2, at most 1000 nM.
For `Cn1ccc2c(=O)c(-c3ccc(C4(N)CCC4)cc3)c(-c3ccccc3)oc2c1=O` [Example 41, 3-[4-(1-Amino-cyclobutyl)-phenyl]-7-methyl-2-phenyl-7H-pyrano[2,3-c]pyridine-4,8-dione hydrochloride], the IC50 was above 10 µM at AKT3, above 10000 nM at AKT1 and 1000 to 10000 nM at AKT2.
Regarding `Cc1c(-c2nccc3c(=O)c(-c4ccc(C5(N)CCC5)cc4)c(-c4ccccc4)oc23)cnn1C` [Example 116, 3-(4-(1-aminocyclobutyl)phenyl)-8-(1,5-dimethyl-1H-pyrazol-4-yl)-2-phenyl-4H-pyrano[2,3-c]pyridin-4-one], the IC50 on AKT3 is 1 to 10 µM; at AKT1, at most 1000 nM; at AKT2, 1000 to 10000 nM.
In the case of `Cn1ncc2ccc3c(=O)c(-c4ccc(C5(N)CCC5)cc4)c(-c4ccccc4)oc3c21` [Example 58, 7-[4-(1-Amino-cyclobutyl)-phenyl]-1-methyl-8-phenyl-1H-9-oxa-1,2-diaza-cyclopenta[a]naphthalen-6-one], the results for the 50% inhibitory concentration (IC50) on AKT3, on AKT1 and on AKT2 were 1 to 10 µM, at most 1000 nM and at most 1000 nM, respectively.
On to `CCc1nccc2c(=O)c(-c3ccc(C4(N)CCC4)cc3)c(-c3ccccc3)oc12` [Example 128, 3-(4-(1-aminocyclobutyl)phenyl)-8-ethyl-2-phenyl-4H-pyrano[2,3-c]pyridin-4-one], for which the IC50 at AKT3 was above 10 µM; at AKT1 it was at most 1000 nM; at AKT2 it was 1000 to 10000 nM.
With `NC1(c2ccc(-c3c(-c4ccccc4)oc4c(-c5c[nH]nc5C(F)(F)F)cccc4c3=O)cc2)CCC1` [Example 76, 3-[4-(1-Amino-cyclobutyl)-phenyl]-2-phenyl-8-(3-trifluoromethyl-1H-pyrazol-4-yl)-chromen-4-one], the IC50 at AKT3 was 1 to 10 µM; at AKT1, at most 1000 nM; at AKT2 it was 1000 to 10000 nM.
Take `CCn1cc2ccc3c(=O)c(-c4ccc(C5(N)CCC5)cc4)c(-c4ccccc4)oc3c2n1` [Example 82, 7-[4-(1-Amino-cyclobutyl)-phenyl]-2-ethyl-8-phenyl-2H-9-oxa-1,2-diaza-cyclopenta[a]naphthalen-6-one hydrochloride]: the IC50 is above 10 µM at AKT3, at most 1000 nM on AKT1 and at most 1000 nM on AKT2.
In the case of `NC1(c2ccc(-c3c(-c4ccccc4)oc4c(-n5ccnc5)nccc4c3=O)cc2)CCC1` [Example 114, 3-(4-(1-aminocyclobutyl)phenyl)-8-(1H-imidazol-1-yl)-2-phenyl-4H-pyrano[2,3-c]pyridin-4-one], the IC50 on AKT3 was above 10 µM; on AKT1, at most 1000 nM; on AKT2, 1000 to 10000 nM.
Take `NC1(c2ccc(-c3c(-c4ccccc4)oc4c(CN5CC(F)C5)cccc4c3=O)cc2)CCC1` [Example 108, 3-[4-(1-Amino-cyclobutyl)-phenyl]-8-(3-fluoro-azetidin-1-ylmethyl)-2-phenyl-chromen-4-one]: the IC50 is above 10 µM at AKT3, 1000 to 10000 nM on AKT1 and at most 1000 nM on AKT2.
